Assay results as given in US20240050406A1, “COMPOSITION COMPRISING OXIRACETAM FOR PREVENTING OR TREATING MUSCULAR DISEASE” (KSB TUGEN INC., priority 2021, published 2024).

Experiments:
[1] = tested on: C2C12 myotubes; experiment: Myotube diameter in doxorubicin-induced cachexia cell model (Experimental Example 8); type: cell-based, mouse; settings: doxorubicin 500 nM 48 h with or without oxiracetam 0.01, 0.1, 1, 10 and 30 μM; relative to control
Experimental: A mouse-derived C2C12 cell line was provided from the American Type Culture Collection (ATCC, CRL-1772; Manassas, VA, USA) and cultured at 37° C. in 5% CO2. In the proliferation phase of the cells before differentiation, high concentration glucose Dulbecco's modified Eagle's medium (DMEM) containing 1% penicillin/streptomycin and 10% fetal bovine serum (FBS) medium were used, and in the differentiation induction, the FBS medium was replaced with a 2% horse serum (HS)-containing medium. The C2C12 myoblasts were seeded into a 96 well culture plate and a 6 well culture plate at 2×10^5/well and 5×10^3/well, respectively, and cultured at 37° C. in a CO2 incubator. […]
Two days after anticancer agent and oxiracetam treatment, the anticancer agent-treated group (Doxorubicin), the oxiracetam-treated groups (Oxiracetam 0.01 μM, 0.1 μM, 1 μM, 10 μM and 30 μM), and the control (control) were photographed using an optical microscope at a room temperature, and the diameter (Diameter, %) of a myotube in each group was measured and compared.
(§1) Statistical processing was performed using GraphPad Prism (GraphPad Software Inc., San Diego, CA, USA). The results of each repeated experiment were expressed as mean±standard error of mean, and analyzed using the analysis of variance (Tukey's test), and statistical significance was acknowledged when the P-value was 0.05 or less.

[2] = tested on: animal model in which muscular atrophy is induced by dexamethasone; experiment: Comparison with dementia drugs in dexamethasone muscular atrophy model (Experimental Example 5); type: in vivo, ICR mice
Description: For an experimental group in the present invention, oxiracetam having a structure of Formula 1 was purchased from Tokyo Chemical Industry (Japan; Product No. 00398, CAS RN:62613-82-5, purity: 96%) and used. Mirtazapine and olanzapine were purchased from Tokyo Chemical Industry (Japan, Product Nos. M2151, 00393, purity: 96%) and used.
As experimental animals, 7-week-old male ICR mice were purchased and used. Until the day of the experiment, general feed (EEGJ30060: Cargill Agri Purina, Seongnam, Korea) and water were sufficiently supplied to the experimental animals, and the animals were acclimated for 1 week under an environment of a temperature of 23±2° C., a humidity of 55±10%, and a light-dark cycle of 12 hours-12 hours and used in the experiment.
After the acclimation period for the experimental animals, to create a muscular atrophy model, the mice were randomly divided into groups of 7 animals, such as a control (vehicle, n=7), a dexamethasone-treated group (n=7), and a drug-administered group (n=7). The groups except for the control were intraperitoneally injected dexamethasone at a dose of 10 mg/kg from day 7 to day 21 for 14 days. In the case of the drug-administered group, 7 days before the intraperitoneal administration of dexamethasone, the drug was orally administered using a Zonde needle at a dose of 30 or 10 mg/kg/day once a day for 21 days. During the same period, the control was administered no drug, and 100 μL of normal saline was orally administered at a time. To the dexamethasone-treated group (dexamethasone excipient, CMC), instead of the drug, 100 μL of a 0.5% carboxymethylcellulose (CMC) solution was administered. This is to set the effect on the excipient as a blank.
To measure grip strength, a grip strength test was performed. The maximum force presented when the forelimbs of an animal model of each group could no longer hold the rod by pulling the tail horizontally while holding the tail of the animal model and holding the rod of a device with both front paws was considered to be grip strength (N). Grip strength adaptation training was performed at least three times before drug administration. After measurement before drug administration (day 0) and on day 20 after drug administration began, grip strength variation (%) after drug administration began (day 20) with respect to that before drug administration (day 0) was calculated.
The lean body mass of the gastrocnemius muscle (GS) and the lean body mass of the tibialis anterior (TA) for each group were measured every 7 days. Specifically, animal models of each group were anesthetized using 3% isoflurane, fixed to a photographing bed and then photographed. During photographing, the respiratory rates and body temperatures of the animal models were measured with an animal monitoring system (SA Instruments, USA).
The whole body of the animal model was photographed through dual energy X-ray absorptiometry (DEXA) using iNSiGHT VET DXA (Osteosys, KR), and the lean body mass of each of the gastrocnemius muscle (GS) and the tibialis anterior (TA) was measured and calculated from the two-dimensional images of the gastrocnemius muscle (GS) and the tibialis anterior (TA) by a program using the region of interest (ROI).
as §1

[3] = tested on: C2C12 myotubes; experiment: Myotube diameter in TNF-α muscular atrophy cell model (Experimental Example 7); type: cell-based, mouse; settings: TNF-α 10 ng/ml 48 h with oxiracetam 10 μM or 0 μM; relative to non-treated control
Experimental: A mouse-derived C2C12 cell line was provided from the American Type Culture Collection (ATCC, CRL-1772; Manassas, VA, USA) and cultured at 37° C. in 5% CO2. In the proliferation phase of the cells before differentiation, high concentration glucose Dulbecco's modified Eagle's medium (DMEM) containing 1% penicillin/streptomycin and 10% fetal bovine serum (FBS) medium were used, and in the differentiation induction, the FBS medium was replaced with a 2% horse serum (HS)-containing medium. The C2C12 myoblasts were seeded into a 96 well culture plate and a 6 well culture plate at 2×10^5/well and 5×10^3/well, respectively, and cultured at 37° C. in a CO2 incubator. When the confluency reached approximately 90%, the medium was replaced with 2% horse serum (HS)-containing DMEM to induce differentiation of myoblasts. After 5 days, the C2C12 myotubes that had differentiated were treated with 10 ng/ml TNF-α, which is an inflammatory factor, for 48 hours to cause myotube atrophy, thereby creating a muscular atrophy cell model, TNF-α-treated group (TNF-α). During the TNF-α treatment, 10 μM oxiracetam was treated to create an oxiracetam-treated group (Oxiracetam 10 μM), cells that were not treated during the same period were prepared as a control. Two days after TNF-α and oxiracetam treatment, each of the TNF-α-treated group (TNF-α), the oxiracetam-treated group (Oxiracetam 10 μM) and the control was treated with an ATP detection reagent at room temperature, and then luminescence was measured using a mitochondrial ToxGlo™ assay kit (Promega). In addition, the TNF-α-treated group (TNF-α), the oxiracetam-treated group (Oxiracetam 10 μM) and the control were photographed using an optical microscope and the diameter of a myotube cell in each group were measured and compared. Statistical processing was performed using GraphPad Prism (GraphPad Software Inc., San Diego, CA, USA).

[4] = oxiracetam 30, mirtazapine 10, olanzapine 10 mg/kg/day oral 21 days + dexamethasone, DEXA every 7 days

For `COc1cccc2c1C(=O)c1c(O)c3c(c(O)c1C2=O)C[C@@](O)(C(=O)CO)C[C@@H]3O[C@H]1C[C@H](N)[C@H](O)[C@H](C)O1` [Doxorubicin, doxorubicin], the diameter of myotube [1] was “significantly decreased”.
`CN1CCN2c3ncccc3Cc3ccccc3C2C1` (centres unmarked) [mirtazapine] was tested, and the “change in grip strength” value ([2]; oxiracetam 30, mirtazapine 10, olanzapine 10 mg/kg/day oral 21 days + dexamethasone 10 mg/kg i.p. day 7-21) was “reduced”, the “lean body mass of the gastrocnemius muscle (GS)” value [2, 4] was “not recovered but rather reduced” and the “lean body mass of the tibialis anterior (TA)” value [2, 4] was “not recovered but rather reduced”.
With TNF-α the “diameter of a myotube relative to control” value [3] was “greatly reduced to half the level of the control”.
